Measurements reported in US8343998B2, “Triazolothiadiazole inhibitor of c-Met protein kinase” (Vertex Pharmaceuticals Incorporated, priority 2008, dated 2013).
Values after ≈ are worked out from the molar mass of the structure shown. Values joined by “and” are separate entries in the source; they are usually repeats but may differ in a detail not shown here. Equal entries are not always repeated. Where two headings read alike, the source gives them in different places.

Key:
[1] = molecular target: T1, CYP2C19 (Homo sapiens, UniProt P33261); experiment: Stability in human recombinant CYP isoform; assay type: in vitro ADME
T1 construct: host or cells: baculovirus-infected insect cells
Experimental: (§1) The stability of compound 1 was evaluated in cDNA Baculovirus-insect cell-expressed human cytochrome P450 (CYP) isoforms CYP1A2, CYP2B6, CYP2C9, CYP2C19, CYP2D6, CYP2E1, and CYP3A4. Accordingly, the human recombinant cytochrome P450 isoforms at a final concentration of 50 pmoles of CYP/mL were incubated in phosphate buffer (pH 7.4) with 2.0 mM NADPH and compound 1 at compound concentrations of 1 μM and 10 μM. Sampling was conducted at 0 and 120 minutes and the amount of compound remaining was evaluated by LC/MS/MS analysis.

[2] = molecular target: T2, CYP2D6 (Homo sapiens, UniProt P10635); experiment: Stability in human recombinant CYP isoform; assay type: in vitro ADME; details: 120 minutes, 50 pmoles CYP/mL, NADPH, two separate studies (two lines)
T2 construct: host or cells: baculovirus-infected insect cells
Experimental: as §1

[3] = molecular target: T3, CYP3A4 (Homo sapiens, UniProt P08684); experiment: Stability in human recombinant CYP isoform; assay type: in vitro ADME
T3 construct: host or cells: baculovirus-infected insect cells
Experimental: as §1

[4] = molecular target: T4, CYP2B6 (Homo sapiens, UniProt P20813); experiment: Stability in human recombinant CYP isoform; assay type: in vitro ADME; details: 120 minutes, 50 pmoles CYP/mL, NADPH, two separate studies (two lines)
T4 construct: host or cells: baculovirus-infected insect cells
T4 sequence (P20813 1-491): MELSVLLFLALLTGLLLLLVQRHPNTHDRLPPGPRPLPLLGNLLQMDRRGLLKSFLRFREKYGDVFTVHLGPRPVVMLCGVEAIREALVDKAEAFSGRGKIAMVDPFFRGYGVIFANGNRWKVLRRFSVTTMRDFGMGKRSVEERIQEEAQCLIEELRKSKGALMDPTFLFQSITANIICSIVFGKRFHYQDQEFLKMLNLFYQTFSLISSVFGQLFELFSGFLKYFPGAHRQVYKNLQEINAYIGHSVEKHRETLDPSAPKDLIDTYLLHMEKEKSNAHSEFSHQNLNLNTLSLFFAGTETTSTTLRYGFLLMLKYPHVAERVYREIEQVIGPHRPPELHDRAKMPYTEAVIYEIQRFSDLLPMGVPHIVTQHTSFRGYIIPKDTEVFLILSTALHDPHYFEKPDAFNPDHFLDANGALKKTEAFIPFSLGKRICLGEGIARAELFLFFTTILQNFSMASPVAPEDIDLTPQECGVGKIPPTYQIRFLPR
Experimental: as §1

[5] = molecular target: T5, CYP2C9 (Homo sapiens, UniProt P11712); experiment: Stability in human recombinant CYP isoform; assay type: in vitro ADME; details: 120 minutes, 50 pmoles CYP/mL, NADPH, two separate studies (two lines)
T5 construct: host or cells: baculovirus-infected insect cells
Experimental: as §1

[6] = molecular target: T6, CYP1A2 (Homo sapiens, UniProt P05177); experiment: Stability in human recombinant CYP isoform; assay type: in vitro ADME; details: 120 minutes, 50 pmoles CYP/mL, NADPH, two separate studies (two lines)
T6 construct: host or cells: baculovirus-infected insect cells
T6 sequence (P05177 1-516): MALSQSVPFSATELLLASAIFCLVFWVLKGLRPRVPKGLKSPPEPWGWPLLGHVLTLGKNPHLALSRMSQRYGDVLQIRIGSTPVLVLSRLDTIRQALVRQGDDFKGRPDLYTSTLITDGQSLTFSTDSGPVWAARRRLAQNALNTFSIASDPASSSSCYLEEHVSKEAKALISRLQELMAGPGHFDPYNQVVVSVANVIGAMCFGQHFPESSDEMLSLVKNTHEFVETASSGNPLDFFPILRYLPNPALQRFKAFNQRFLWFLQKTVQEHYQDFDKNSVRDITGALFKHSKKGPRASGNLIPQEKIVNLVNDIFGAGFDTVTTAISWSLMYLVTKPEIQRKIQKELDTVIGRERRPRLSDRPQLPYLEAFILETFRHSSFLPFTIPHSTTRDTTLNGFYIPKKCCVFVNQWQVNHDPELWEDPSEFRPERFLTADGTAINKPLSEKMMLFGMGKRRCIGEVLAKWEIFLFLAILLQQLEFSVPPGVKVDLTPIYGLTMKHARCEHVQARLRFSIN
Experimental: as §1

[7] = molecular target: T7, CYP2E1 (Homo sapiens, UniProt P05181); experiment: Stability in human recombinant CYP isoform; assay type: in vitro ADME; details: 120 minutes, 50 pmoles CYP/mL, NADPH, two separate studies (two lines)
T7 construct: host or cells: baculovirus-infected insect cells
Experimental: as §1

[8] = Solubility of compound 1 crystalline free base in different solvents, by HPLC; assay type: physicochemical; details: thermodynamic from solid, crystalline free base slurry, room temperature, 4 day solution, read-out: Conc. FB (solubility)
Experimental: About 10 mg of compound 1, crystalline free base (FB), was loaded into a vial with a magnetic stir bar. About 150 μL of solvent were added to each vial. If compound 1 dissolved completely, more solid was added to the vial and stirring of the resulting slurry was continued at room temperature. The 4 day solution was filtered off using centrifuge filters and diluted in methanol to obtain solubility data by HPLC analysis. X-ray diffraction data of the crystals in the slurry were collected after 4 and 14 days.

[9] = molecular target: T8, hERG (Homo sapiens, UniProt Q12809); experiment: hERG inhibition assay, whole cell recording in HEK293 cells expressing hERG; assay type: cell-based; details: hERG current, peak tail current
T8 construct: host or cells: HEK293
Experimental: Peak tail current was measured during the 2 second step to −50 mV.

[10] = molecular target: T9, c-Met (Homo sapiens, UniProt P08581); experiment: Inhibition of c-Met activity in Snu5 gastric carcinoma cells (Snu5-AP1-Luc-Pest luciferase signal); assay type: cell-based; details: 6 hours, luciferase luminescence
T9 construct: is a human gastric carcinoma known to overexpress c-Met, which is constitutively active; host or cells: Snu5-AP1-Luc-Pest (Snu5 transduced with an AP1-luciferase-PEST reporter)
Text: Compound 1 was also screened for their ability to inhibit the Luciferase-induced signal in an engineered Snu5 cell line. Snu5 [obtained from American Type Culture Collection (Catalog number CRL-5973)] is a human gastric carcinoma known to overexpress c-Met, which is constitutively active. […] The constitutively active c-Met activates cellular pathways (principally MAP kinase), resulting in AP-1-induced transcription of luciferase-PEST and translation into the final product, the activity of which is quantifiable as a chemiluminescent readout upon the addition of luciferin (Steady-Glo from Promega.). Residual luminescence is strongly correlated to the inhibition of c-Met. A stable cell line was obtained by selecting the new cell line (Snu5-AP1-Luc-Pest) with puromycin. The cells were grown in complete media [Iscove's media (Invitrogen) containing 10% fetal bovine serum (FBS, Hyclone) and penicillin/gentamycin (Invitrogen)]. Compounds of the invention were dissolved in DMSO to make 10 mM initial stock solutions. Serial dilutions in DMSO were then made and transferred to complete medium to make a 10× solution. The Snu5-AP1-Luc-Pest cells were counted and diluted to 200,000-cells/mL solution. […] The plate was read on a 1450 Microbeta Liquid Scintillation and Luminescence Counter (Perkin-Elmer). The IC50 was calculated using a 4-parameter fit using the graphing software Prism (GraphPad).

[11] = compound at 10 μM, 120 minutes, 50 pmoles CYP/mL, NADPH, two separate studies (two lines)

T1 sequence (P33261 whole entry, canonical isoform): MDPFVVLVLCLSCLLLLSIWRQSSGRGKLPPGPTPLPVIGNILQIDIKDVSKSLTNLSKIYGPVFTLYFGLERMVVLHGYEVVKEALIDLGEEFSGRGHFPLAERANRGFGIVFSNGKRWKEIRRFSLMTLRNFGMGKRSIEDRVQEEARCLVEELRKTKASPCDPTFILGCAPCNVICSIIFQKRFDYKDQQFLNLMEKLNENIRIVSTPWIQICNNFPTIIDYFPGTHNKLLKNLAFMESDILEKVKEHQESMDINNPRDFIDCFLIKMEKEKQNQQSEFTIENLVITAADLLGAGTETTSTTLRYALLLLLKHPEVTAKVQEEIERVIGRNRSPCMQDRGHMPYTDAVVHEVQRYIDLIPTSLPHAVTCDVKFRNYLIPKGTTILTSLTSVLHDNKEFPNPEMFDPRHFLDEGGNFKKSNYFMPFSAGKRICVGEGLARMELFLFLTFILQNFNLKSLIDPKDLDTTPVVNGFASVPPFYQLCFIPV
T5 sequence (P11712 whole entry, canonical isoform): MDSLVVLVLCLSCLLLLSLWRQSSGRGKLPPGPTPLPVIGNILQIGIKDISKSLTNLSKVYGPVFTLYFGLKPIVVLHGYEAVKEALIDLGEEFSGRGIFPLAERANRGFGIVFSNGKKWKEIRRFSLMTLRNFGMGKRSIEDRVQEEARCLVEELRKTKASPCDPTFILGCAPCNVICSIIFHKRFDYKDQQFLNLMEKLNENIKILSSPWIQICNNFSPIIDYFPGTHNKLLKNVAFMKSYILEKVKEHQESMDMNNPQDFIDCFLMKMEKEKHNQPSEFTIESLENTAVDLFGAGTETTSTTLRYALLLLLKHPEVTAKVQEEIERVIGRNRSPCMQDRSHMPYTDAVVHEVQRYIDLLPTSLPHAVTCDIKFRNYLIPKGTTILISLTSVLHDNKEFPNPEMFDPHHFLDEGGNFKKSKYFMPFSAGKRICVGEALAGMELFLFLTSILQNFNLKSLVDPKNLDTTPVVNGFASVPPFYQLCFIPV
T7 sequence (P05181 whole entry, canonical isoform): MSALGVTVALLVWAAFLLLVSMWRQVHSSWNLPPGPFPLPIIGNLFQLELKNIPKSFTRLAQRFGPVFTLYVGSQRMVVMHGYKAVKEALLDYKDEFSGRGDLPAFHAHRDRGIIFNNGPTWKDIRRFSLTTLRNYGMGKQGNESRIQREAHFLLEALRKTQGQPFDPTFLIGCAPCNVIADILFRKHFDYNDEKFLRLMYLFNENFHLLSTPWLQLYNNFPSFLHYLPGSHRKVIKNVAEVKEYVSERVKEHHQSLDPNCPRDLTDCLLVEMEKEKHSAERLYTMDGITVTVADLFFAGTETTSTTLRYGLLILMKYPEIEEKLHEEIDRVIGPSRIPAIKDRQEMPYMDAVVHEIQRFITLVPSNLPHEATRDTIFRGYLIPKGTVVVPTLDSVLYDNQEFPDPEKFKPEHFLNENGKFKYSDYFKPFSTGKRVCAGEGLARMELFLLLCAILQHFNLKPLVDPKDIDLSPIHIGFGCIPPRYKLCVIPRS
T3 sequence (P08684 whole entry, canonical isoform): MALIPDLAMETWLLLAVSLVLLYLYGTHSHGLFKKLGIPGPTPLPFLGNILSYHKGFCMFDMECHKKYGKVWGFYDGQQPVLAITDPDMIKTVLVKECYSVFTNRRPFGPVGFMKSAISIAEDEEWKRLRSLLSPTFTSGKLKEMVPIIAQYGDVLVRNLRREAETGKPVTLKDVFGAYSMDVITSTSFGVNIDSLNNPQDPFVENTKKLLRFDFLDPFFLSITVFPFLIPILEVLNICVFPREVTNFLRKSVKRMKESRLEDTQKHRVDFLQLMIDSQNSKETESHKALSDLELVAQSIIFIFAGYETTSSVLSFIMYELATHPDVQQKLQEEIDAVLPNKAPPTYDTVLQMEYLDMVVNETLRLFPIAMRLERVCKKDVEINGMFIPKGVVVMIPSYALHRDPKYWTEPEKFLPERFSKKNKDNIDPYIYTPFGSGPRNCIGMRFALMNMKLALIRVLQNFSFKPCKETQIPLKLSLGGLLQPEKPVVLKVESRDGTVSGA
T2 sequence (P10635 whole entry, canonical isoform): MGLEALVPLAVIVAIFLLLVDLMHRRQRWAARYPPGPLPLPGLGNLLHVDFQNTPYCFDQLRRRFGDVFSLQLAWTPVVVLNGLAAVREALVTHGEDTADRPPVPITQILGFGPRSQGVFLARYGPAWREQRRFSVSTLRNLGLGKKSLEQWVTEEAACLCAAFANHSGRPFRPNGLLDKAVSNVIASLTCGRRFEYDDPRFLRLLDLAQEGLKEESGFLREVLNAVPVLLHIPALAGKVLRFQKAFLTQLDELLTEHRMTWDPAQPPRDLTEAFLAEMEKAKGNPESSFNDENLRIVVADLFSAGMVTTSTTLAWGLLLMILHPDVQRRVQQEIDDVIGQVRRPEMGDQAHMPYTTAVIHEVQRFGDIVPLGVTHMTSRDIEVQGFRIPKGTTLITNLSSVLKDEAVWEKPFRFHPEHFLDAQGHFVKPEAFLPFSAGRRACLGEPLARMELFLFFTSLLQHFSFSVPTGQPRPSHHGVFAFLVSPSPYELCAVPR
T8 sequence (Q12809 whole entry): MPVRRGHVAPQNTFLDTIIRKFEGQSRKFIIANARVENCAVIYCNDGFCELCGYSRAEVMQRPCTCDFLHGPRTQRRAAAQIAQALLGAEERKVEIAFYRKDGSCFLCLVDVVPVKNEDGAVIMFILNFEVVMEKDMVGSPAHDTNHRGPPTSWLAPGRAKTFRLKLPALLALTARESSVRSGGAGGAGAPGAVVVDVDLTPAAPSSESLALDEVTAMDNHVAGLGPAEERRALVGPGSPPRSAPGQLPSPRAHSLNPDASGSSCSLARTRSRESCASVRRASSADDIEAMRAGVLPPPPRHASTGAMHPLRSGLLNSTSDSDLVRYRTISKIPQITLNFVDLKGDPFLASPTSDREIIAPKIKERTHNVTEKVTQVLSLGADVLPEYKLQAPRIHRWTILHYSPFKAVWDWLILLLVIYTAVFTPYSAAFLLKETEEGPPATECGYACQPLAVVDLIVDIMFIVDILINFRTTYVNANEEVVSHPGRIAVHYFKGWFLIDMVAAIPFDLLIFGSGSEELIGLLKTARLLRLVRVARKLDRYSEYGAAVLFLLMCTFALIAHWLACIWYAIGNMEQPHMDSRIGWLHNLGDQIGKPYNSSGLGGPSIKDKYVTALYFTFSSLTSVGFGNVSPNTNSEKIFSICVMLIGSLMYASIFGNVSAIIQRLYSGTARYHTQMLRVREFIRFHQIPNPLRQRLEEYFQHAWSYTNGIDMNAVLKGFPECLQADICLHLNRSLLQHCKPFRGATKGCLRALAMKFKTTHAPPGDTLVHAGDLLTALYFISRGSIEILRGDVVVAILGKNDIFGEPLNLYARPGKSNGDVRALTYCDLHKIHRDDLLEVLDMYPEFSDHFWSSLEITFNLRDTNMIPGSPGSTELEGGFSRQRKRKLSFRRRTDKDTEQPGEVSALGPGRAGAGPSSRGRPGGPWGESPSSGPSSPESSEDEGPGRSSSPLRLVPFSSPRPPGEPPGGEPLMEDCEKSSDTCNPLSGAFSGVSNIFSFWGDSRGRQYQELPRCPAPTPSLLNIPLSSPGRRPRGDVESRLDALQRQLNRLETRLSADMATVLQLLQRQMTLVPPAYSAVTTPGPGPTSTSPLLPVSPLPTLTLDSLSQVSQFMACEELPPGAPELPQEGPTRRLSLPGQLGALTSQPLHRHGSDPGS
T9 sequence (P08581 25-1390): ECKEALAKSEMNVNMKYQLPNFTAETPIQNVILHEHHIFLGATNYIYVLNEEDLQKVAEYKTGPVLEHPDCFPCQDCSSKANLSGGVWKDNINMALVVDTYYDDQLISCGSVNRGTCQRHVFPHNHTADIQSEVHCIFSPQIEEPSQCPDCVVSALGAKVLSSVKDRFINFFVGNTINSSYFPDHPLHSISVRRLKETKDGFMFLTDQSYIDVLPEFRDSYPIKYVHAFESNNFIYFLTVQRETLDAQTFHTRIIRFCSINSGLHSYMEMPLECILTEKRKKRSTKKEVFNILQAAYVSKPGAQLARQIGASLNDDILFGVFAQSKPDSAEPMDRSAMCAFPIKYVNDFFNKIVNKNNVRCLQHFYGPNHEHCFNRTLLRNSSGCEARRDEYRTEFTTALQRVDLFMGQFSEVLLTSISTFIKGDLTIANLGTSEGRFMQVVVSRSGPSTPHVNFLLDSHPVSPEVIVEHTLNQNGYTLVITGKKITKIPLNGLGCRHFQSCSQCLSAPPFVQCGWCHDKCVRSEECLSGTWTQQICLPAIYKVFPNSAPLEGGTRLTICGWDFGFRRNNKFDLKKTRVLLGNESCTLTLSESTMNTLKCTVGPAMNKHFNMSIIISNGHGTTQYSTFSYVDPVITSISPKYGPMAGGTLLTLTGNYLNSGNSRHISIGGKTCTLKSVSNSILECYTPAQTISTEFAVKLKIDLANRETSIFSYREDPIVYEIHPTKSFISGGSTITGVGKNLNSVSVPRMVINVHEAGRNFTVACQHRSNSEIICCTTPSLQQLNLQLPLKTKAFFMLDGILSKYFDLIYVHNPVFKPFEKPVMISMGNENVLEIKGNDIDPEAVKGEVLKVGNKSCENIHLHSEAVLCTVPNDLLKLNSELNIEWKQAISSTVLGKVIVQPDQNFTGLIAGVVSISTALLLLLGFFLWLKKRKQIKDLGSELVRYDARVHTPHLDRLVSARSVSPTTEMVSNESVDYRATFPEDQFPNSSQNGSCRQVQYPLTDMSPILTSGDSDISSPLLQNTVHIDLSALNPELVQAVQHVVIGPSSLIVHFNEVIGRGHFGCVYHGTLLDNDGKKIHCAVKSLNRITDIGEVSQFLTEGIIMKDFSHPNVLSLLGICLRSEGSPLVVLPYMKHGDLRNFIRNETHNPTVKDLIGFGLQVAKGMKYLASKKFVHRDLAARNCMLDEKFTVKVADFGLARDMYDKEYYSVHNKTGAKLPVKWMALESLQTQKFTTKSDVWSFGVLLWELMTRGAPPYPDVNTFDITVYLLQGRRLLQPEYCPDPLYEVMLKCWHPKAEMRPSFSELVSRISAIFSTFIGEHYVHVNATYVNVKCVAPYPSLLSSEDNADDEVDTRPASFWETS

% remaining +/− SDEV [1, 11]: 40.3 +/− 2.2% and 34 +/− 3.3%
% remaining +/− SDEV ([2]; compound at 1 μM): 102 +/− 3.6% and 125 +/− 44.2%
% remaining +/− SDEV ([2]; compound at 10 μM): 94.7 +/− 4.4% and 130 +/− 11%
% remaining +/− SDEV [3, 11]: 31.8 +/− 2.1% and 56 +/− 14%
% remaining +/− SDEV ([4]; compound at 1 μM): 93 +/− 5.4% and 91.7 +/− 10.4%
% remaining +/− SDEV ([4]; compound at 10 μM): 99 +/− 4.8% and 101 +/− 1.4%
% remaining +/− SDEV ([5]; compound at 1 μM): 128 +/− 22.5% and 96 +/− 2.2%
% remaining +/− SDEV ([5]; compound at 10 μM): 101 +/− 4.4% and 101 +/− 8.5%
% remaining +/− SDEV ([6]; compound at 1 μM): 113 +/− 7.2% and 79 +/− 9.6%
% remaining +/− SDEV ([6]; compound at 10 μM): 96.7 +/− 4.3% and 86 +/− 7.8%
% remaining +/− SDEV ([7]; compound at 1 μM): 109 +/− 19% and 164 +/− 54.8%
% remaining +/− SDEV ([7]; compound at 10 μM): 109 +/− 5.6% and 111 +/− 1.1%
solubility at 4 day ([8]; organic solvent or mixture, solvent 2-Methyl THF): 9.03 mg/mL (≈ 25 mM)
solubility at 4 day ([8]; organic solvent or mixture, solvent Acetone): 14.3 mg/mL (≈ 39.5 mM)
solubility at 4 day ([8]; organic solvent or mixture, solvent Acetonitrile): 9.76 mg/mL (≈ 27 mM)
solubility at 4 day ([8]; organic solvent or mixture, solvent Benzyl Alcohol): 362 mg/mL (≈ 1000 mM)
solubility at 4 day ([8]; organic solvent or mixture, solvent Cumene): 2.52 mg/mL (≈ 6.97 mM)
solubility at 4 day ([8]; organic solvent or mixture, solvent DCM): 116 mg/mL (≈ 322 mM)
solubility at 4 day ([8]; organic solvent or mixture, solvent DME): 16.1 mg/mL (≈ 44.4 mM)
solubility at 4 day ([8]; organic solvent or mixture, solvent DMSO): 67.7 mg/mL (≈ 187 mM)
solubility at 4 day ([8]; organic solvent or mixture, solvent Diiodomethane): 81 mg/mL (≈ 224 mM)
solubility at 4 day ([8]; organic solvent or mixture, solvent Dioxane): 36.8 mg/mL (≈ 102 mM)
solubility at 4 day ([8]; organic solvent or mixture, solvent EtOAc): 7.24 mg/mL (≈ 20 mM)
solubility at 4 day ([8]; organic solvent or mixture, solvent Ethanol): 42.1 mg/mL (≈ 116 mM)
solubility at 4 day ([8]; organic solvent or mixture, solvent Ethylene Glycol): 35.3 mg/mL (≈ 97.8 mM)
solubility at 4 day ([8]; organic solvent or mixture, solvent Glycerol): 0.69 mg/mL (≈ 1.91 mM)
solubility at 4 day ([8]; organic solvent or mixture, solvent IPA): 7.92 mg/mL (≈ 21.9 mM)
solubility at 4 day ([8]; organic solvent or mixture, solvent MEK): 14.2 mg/mL (≈ 39.4 mM)
solubility at 4 day ([8]; organic solvent or mixture, solvent MTBE): 0.3 mg/mL (≈ 0.83 mM)
solubility at 4 day ([8]; organic solvent or mixture, solvent Methanol): 41 mg/mL (≈ 114 mM)
solubility at 4 day ([8]; organic solvent or mixture, solvent Nitromethane): 44.4 mg/mL (≈ 123 mM)
solubility at 4 day ([8]; solvent water): 0.15 mg/mL (≈ 0.415 mM)
IC50 [10]: 0.023 µM
SMILES: C[C@@H](c1ccc2ncccc2c1)c1nnc2sc(-c3cnn(C)c3)nn12 [Compound 1, 6-((S)-1-(6-(1-methyl-1H-pyrazol-4-yl)-[1,2,4]triazolo[3,4-b][1,3,4]thiadiazol-3-yl)ethyl)quinoline]
Metabolism by the CYP isoform, in words ([1]; summary of Table 4): metabolized by both CYP2C19 and CYP3A4 isoforms
Metabolism by the CYP isoform, in words ([3]; summary of Table 4): metabolized by both CYP2C19 and CYP3A4 isoforms
IC50 [9]: 110 µM
